# Columns and labels:
# SEM cells = test: May Grunwald-Giemsa staining, morphology by light microscopy; assay type: cell-based, human; details: 1 μM PDA-66, 48 h, vs. DMSO treated control cells
# Experimental: (§1) Cytospins of SEM and Jurkat cells were stained with May Grunwald-Giemsa Staining after 48 h of incubation with 1 μM PDA-66 and DMSO, respectively
# (§2) After treatment with 1 μM PDA-66 3×10^4 cells were brought onto object slides with Cytospin 3 centrifuge (Shandon, Frankfurt/Main, Germany). Subsequently cells were stained using May-Grunwald-Giemsa staining. Briefly, slides were incubated in May-Grunwald solution (Merck, Darmstadt, Germany) for 6 min, then washed with tap water, incubated in Giemsa solution (Merck, Darmstadt, Germany) for 20 min and washed in tap water again. After letting the slides dry the cells were analyzed by Nikon Eclipse E 600 light microscope and pictures were taken with NIS Elements software (Nikon, Düsseldorf, Germany).
# Jurkat cells = test: as above; assay type: cell-based, human; details: 1 μM PDA-66, 48 h, vs. DMSO treated control cells
# Experimental: as §1, §2
smiles,measurement,setting,value
"CC(=O)c1ccc(C2=C(c3c(C)[nH]c4ccccc34)C(=O)N(C)C2=O)cc1 [PDA-66, 3-(4-Acetylphenyl)-1-methyl-4-(2-methyl-1H-indol-3-yl)-1H-pyrrole-2,5-dione]",morphology,SEM cells,"condensation of chromatin in the nucleus, karyorrhexis and an increasing amount of vacuoles and cell debris"
same,morphology,Jurkat cells,"condensation of chromatin in the nucleus, karyorrhexis and an increasing amount of vacuoles and cell debris"

# Source: US9724331B2, “Use of maleimide derivatives for preventing and treating leukemia” (CENTOGENE AG, priority 2012, dated 2017)
